From ChEMBL document CHEMBL3822396 (J Med Chem, 2016)
The source made the active and inactive calls. The rule behind the calls is not given here.

Columns and labels:
[1] = Fraction unbound in Sprague-Dawley rat blood at 2 mg/kg, po or 1 mg/kg, iv; format: ADME, organism-based; conditions: whole blood
[2] = molecular target: Toll-like receptor 2 (Homo sapiens) (UniProt O60603); assay: Activation of TLR2 receptor in human monocytes assessed as inhibition of Pam2Csk4-stimulated TNF-alpha production preincubated for 30 mins prior to Pam2Csk4 stimulation at 1 uM measured after 6 hrs by immunoassay; format: cell-based
[3] = molecular target: Receptor-interacting serine/threonine-protein kinase 2 (Rattus norvegicus, UniProt G3V783); assay: Inhibition of rat RIPK2 preincubated for 10 mins followed by addition of fluorescent-labeled 2-Methyl-5-(2-propen-l-yloxy)aniline measured after 10 mins by fluorescence polarization assay
Mus musculus [4] = assay: Antiinflammatory activity in C57Bl/6 mouse assessed as inhibition of LPS-induced serum KC level at 10 mg/kg, po for 15 mins prior to LPS-challenge measured after 2.5 hrs; format: functional, organism-based
[5] = molecular target: T1, Nucleotide-binding oligomerization domain-containing protein 1 (Homo sapiens) (UniProt Q9Y239); assay: Activation of NOD1 in human monocytes assessed as inhibition of ieDAP-stimulated IL8 production preincubated for 30 mins prior to ieDAP stimulation at 1 uM measured after 6 hrs by immunoassay; format: cell-based
T1 sequence (whole entry): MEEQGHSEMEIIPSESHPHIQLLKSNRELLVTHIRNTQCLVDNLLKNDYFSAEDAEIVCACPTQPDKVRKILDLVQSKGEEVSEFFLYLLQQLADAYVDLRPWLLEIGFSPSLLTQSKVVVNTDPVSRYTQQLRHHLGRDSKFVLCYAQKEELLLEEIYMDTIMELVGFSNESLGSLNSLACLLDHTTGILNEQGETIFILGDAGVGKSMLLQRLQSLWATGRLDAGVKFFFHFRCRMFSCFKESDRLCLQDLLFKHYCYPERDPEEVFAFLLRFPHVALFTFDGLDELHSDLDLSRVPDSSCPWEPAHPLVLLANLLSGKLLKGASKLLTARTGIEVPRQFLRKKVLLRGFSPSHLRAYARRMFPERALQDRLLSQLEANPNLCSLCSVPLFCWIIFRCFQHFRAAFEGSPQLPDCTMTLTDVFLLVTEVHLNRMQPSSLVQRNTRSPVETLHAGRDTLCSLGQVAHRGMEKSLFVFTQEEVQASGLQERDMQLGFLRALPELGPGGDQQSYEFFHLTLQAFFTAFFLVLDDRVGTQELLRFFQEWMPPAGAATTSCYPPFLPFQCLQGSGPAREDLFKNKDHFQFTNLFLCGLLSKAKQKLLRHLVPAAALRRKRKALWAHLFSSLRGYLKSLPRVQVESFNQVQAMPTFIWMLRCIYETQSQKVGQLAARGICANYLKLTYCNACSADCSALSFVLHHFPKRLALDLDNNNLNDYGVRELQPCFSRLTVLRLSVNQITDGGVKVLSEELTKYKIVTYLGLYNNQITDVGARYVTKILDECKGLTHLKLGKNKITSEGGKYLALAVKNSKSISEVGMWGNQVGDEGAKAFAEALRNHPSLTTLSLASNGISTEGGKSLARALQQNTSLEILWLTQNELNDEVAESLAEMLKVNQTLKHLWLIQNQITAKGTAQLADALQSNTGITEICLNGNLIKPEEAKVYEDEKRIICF

[6] = molecular target: Vascular endothelial growth factor receptor 2 (Homo sapiens, UniProt P35968)
Mus musculus [7] = assay: Antiinflammatory activity in C57Bl/6 mouse assessed as inhibition of FK156-induced serum KC level at 0.1 to 100 mg/kg, po for 15 mins prior to FK156-challenge measured after 2.5 hrs by FACS analysis; format: functional, organism-based
[8] = AUC in Sprague-Dawley rat at 2 mg/kg, po administered through cassette dosing by LC-MS/MS analysis; format: ADME, organism-based; conditions: in vivo
Intestinal mucosa [9] = assay: Inhibition of TNFalpha production in intestinal mucosa derived from ulcerative colitis patient measured after 24 hrs by sandwich ELISA; format: functional, tissue-based; conditions: Homo sapiens
Mus musculus [10] = assay: Antiinflammatory activity in Balb/c mouse model of L18-MDP-induced inflammatory peritonitis assessed as inhibition of serum KC level into peritoneal cavity administered orally for 15 mins prior to L18-MDP-challenge measured after 4 hrs; format: functional, organism-based
[11] = Cmax in C57BL/6 mouse at 2 mg/kg, po by LC-MS/MS analysis; format: ADME, organism-based; parameters: dose 2 mg/kg, route oral; conditions: in vivo
[12] = Clearance in C57BL/6 mouse at 2 mg/kg, po or 1 mg/kg, iv by LC-MS/MS analysis; format: ADME, organism-based; conditions: in vivo
[13] = Oral bioavailability in C57BL/6 mouse at 2 mg/kg by LC-MS/MS analysis; format: ADME, organism-based; conditions: in vivo
[14] = Oral bioavailability in Sprague-Dawley rat at 2 mg/kg by LC-MS/MS analysis; format: ADME, organism-based; conditions: in vivo
[15] = Volume of distribution at steady state in C57BL/6 mouse at 2 mg/kg, po or 1 mg/kg, iv by LC-MS/MS analysis; format: ADME, organism-based; conditions: in vivo, read-out: Vdss
Intestinal mucosa [16] = assay: Inhibition of IL6 production in intestinal mucosa derived from ulcerative colitis patient measured after 24 hrs by sandwich ELISA; format: functional, tissue-based; conditions: Homo sapiens
[17] = molecular target: Nucleotide-binding oligomerization domain-containing protein 2 (Homo sapiens) (UniProt Q9HC29); assay: Activation of NOD2 in human monocytes assessed as inhibition of MDP-stimulated TNF-alpha production preincubated for 30 mins prior to MDP stimulation measured after 6 hrs by immunoassay; format: cell-based
[18] = AUC in C57BL/6 mouse at 2 mg/kg, po by LC-MS/MS analysis; format: ADME, organism-based; conditions: in vivo
[19] = molecular target: Protein-tyrosine kinase 6 (Homo sapiens) (UniProt Q13882); assay: Inhibition of human full length N-terminal GST-tagged BRK expressed in baculovirus expression system at 1 uM
[20] = Half life in Sprague-Dawley rat at 2 mg/kg, po and 1 mg/kg, iv by LC-MS/MS analysis; format: ADME, organism-based; conditions: in vivo
[21] = molecular target: Receptor-interacting serine/threonine-protein kinase 3 (Homo sapiens, UniProt Q9Y572); assay: Inhibition of RIPK3 (unknown origin) preincubated for 10 mins followed by addition of fluorescent-labeled 2-Methyl-5-(2-propen-l-yloxy)aniline measured after 10 mins by fluorescence polarization assay
Sequence of Receptor-interacting serine/threonine-protein kinase 3 (Q9Y572 whole entry): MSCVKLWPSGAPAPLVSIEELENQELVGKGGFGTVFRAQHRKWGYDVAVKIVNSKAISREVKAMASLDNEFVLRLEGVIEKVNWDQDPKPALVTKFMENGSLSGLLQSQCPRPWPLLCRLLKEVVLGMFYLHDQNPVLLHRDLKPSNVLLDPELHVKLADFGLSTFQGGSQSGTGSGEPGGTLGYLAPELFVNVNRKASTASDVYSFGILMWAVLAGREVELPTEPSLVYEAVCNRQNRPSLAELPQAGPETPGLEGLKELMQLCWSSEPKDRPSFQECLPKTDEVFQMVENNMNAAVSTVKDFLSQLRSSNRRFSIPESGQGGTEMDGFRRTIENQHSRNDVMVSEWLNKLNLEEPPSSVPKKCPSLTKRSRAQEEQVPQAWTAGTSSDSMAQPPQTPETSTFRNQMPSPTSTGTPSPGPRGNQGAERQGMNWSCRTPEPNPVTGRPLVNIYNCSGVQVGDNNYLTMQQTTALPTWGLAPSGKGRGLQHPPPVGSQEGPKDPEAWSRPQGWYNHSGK

Sequence of Nucleotide-binding oligomerization domain-containing protein 2 (Homo sapiens) (Q9HC29 whole entry, the tested form may be a part): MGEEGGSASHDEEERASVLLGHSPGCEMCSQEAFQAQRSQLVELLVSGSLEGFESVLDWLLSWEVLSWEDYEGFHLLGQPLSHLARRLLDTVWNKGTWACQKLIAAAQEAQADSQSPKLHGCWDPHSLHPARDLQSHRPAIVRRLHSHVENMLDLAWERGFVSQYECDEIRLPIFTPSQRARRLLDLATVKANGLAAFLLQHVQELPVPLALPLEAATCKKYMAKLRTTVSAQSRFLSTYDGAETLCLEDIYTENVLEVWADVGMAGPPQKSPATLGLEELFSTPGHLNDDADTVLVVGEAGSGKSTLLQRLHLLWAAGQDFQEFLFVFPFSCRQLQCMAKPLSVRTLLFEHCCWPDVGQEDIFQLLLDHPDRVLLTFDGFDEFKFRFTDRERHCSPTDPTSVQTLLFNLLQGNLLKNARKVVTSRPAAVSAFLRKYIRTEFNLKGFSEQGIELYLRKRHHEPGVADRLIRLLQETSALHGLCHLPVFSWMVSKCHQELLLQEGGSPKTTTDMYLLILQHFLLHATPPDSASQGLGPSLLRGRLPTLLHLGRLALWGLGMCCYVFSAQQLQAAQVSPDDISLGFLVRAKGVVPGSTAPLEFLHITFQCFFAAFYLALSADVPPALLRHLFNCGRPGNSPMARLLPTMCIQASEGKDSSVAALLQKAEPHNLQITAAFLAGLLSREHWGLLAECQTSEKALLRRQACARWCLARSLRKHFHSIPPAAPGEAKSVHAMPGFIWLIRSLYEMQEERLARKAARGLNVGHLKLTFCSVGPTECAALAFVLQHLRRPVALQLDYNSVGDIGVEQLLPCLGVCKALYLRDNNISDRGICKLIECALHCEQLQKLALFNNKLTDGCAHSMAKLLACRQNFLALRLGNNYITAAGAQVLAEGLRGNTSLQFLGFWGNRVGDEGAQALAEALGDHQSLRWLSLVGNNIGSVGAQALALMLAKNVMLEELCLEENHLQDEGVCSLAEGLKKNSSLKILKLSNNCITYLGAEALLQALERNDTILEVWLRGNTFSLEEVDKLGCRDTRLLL
Sequence of Protein-tyrosine kinase 6 (Homo sapiens) (Q13882 whole entry, looked up): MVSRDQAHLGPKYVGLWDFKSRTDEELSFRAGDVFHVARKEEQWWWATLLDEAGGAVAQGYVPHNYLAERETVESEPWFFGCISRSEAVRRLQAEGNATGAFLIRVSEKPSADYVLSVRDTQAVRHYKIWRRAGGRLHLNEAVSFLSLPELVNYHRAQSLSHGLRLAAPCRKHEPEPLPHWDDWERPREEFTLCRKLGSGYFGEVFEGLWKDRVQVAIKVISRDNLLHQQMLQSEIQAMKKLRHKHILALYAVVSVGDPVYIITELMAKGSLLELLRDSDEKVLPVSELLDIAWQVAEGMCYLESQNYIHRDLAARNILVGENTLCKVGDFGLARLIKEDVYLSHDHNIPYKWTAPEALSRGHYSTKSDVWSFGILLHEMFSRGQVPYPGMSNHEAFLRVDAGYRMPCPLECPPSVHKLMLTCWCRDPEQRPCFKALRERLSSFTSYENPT
Sequence of Toll-like receptor 2 (Homo sapiens) (O60603 whole entry): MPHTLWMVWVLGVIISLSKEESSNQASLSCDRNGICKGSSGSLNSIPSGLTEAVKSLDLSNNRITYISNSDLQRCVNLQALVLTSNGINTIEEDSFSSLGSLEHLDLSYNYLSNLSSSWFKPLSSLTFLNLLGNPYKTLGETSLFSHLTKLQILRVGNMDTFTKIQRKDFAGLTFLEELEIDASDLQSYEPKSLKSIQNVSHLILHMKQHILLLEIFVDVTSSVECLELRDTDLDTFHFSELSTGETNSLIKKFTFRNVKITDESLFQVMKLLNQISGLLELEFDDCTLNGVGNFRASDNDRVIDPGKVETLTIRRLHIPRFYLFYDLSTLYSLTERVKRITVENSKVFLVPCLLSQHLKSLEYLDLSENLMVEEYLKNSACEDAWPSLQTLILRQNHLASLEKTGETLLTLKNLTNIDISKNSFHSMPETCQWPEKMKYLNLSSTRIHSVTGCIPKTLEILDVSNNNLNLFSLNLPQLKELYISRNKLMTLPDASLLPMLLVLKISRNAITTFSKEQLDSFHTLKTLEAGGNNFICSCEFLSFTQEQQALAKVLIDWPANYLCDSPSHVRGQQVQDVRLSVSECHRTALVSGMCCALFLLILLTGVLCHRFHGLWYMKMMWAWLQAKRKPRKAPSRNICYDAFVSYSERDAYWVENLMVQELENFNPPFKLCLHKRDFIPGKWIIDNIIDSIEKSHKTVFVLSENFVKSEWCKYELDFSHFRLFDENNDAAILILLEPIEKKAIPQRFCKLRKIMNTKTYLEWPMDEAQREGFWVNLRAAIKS
Sequence of Vascular endothelial growth factor receptor 2 (P35968 whole entry): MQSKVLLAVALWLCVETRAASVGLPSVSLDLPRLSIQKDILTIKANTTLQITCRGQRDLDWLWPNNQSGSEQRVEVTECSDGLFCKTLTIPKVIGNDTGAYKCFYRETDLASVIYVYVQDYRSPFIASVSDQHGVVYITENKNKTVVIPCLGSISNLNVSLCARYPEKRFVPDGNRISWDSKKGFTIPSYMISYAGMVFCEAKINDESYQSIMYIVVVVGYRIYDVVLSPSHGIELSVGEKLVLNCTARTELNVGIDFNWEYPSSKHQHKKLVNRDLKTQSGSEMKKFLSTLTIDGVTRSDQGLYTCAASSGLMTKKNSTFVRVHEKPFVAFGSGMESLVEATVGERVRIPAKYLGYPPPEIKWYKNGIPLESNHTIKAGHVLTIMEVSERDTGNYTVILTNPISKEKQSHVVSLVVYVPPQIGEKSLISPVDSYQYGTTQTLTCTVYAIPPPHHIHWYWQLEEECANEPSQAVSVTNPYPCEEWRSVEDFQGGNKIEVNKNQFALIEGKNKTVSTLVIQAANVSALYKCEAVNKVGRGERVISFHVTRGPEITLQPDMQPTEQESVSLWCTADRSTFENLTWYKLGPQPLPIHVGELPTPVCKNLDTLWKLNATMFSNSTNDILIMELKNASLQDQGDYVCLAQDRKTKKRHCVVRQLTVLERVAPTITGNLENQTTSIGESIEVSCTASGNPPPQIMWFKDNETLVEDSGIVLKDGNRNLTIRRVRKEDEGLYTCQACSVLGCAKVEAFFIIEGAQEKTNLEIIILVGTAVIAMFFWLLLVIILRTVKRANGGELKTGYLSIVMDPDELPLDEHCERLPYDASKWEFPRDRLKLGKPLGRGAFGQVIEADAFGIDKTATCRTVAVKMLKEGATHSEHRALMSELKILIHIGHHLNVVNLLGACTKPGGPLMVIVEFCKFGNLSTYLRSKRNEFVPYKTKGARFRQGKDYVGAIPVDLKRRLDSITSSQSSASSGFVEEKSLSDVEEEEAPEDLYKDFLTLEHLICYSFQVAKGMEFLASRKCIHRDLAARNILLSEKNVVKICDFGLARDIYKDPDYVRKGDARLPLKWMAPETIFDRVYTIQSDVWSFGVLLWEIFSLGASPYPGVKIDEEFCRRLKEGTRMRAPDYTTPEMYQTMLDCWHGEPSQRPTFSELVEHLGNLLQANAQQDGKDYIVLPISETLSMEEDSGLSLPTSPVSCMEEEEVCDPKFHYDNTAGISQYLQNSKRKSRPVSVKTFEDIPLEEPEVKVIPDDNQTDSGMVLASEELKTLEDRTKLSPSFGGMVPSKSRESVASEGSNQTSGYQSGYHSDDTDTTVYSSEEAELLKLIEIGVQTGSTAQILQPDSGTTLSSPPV
Sequence of Receptor-interacting serine/threonine-protein kinase 2 (G3V783 whole entry): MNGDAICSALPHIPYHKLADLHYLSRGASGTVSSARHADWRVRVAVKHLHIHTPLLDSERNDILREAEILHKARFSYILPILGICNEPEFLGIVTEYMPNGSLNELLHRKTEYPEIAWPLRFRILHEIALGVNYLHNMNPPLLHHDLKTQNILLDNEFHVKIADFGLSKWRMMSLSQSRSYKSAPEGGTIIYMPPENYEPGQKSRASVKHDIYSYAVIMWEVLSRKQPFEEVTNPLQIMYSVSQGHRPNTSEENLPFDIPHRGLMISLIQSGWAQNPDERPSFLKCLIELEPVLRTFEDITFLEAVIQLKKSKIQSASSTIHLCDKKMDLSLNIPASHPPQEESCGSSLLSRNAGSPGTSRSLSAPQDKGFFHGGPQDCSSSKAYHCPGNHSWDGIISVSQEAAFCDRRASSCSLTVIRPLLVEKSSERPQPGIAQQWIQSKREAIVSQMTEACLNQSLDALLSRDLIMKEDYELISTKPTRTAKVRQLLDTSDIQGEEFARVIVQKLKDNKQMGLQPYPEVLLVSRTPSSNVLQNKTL

## CC(C)(C)S(=O)(=O)c1ccc2nccc(Nc3n[nH]c4ccc(F)cc34)c2c1
[1]
  fraction unbound: 0.026
[2]
  inhibition: Active
[3]
  IC50: 2 nM
Mus musculus [4]
  inhibition: inactive
[5]
  inhibition: Active
[6]
  IC50: > 5000 nM
Mus musculus [7]
  inhibition: Active
[8]
  AUC: 980 ng·h/mL
Intestinal mucosa [9]
  inhibition: Dose-dependent effect
Mus musculus [10]
  Activity: Dose-dependent effect
[11]
  Cmax: 340 ng/mL
[12]
  clearance: 13 mL/min/kg
[13]
  bioavailability: 34%
[14]
  bioavailability: 39%
[15]
  Vd: 1.2 L/kg
Intestinal mucosa [16]
  inhibition: Dose-dependent effect
[17]
  inhibition: Active
[18]
  AUC: 860 ng·h/mL
[19]
  inhibition: 30%
[20]
  half-life: 3.1 h
[21]
  IC50: 16 nM
